From the NIST ThermoML archive (doi:10.1016/j.fluid.2018.09.024)
± gives the expanded uncertainty stated by the source.

Test: activity coefficient (dimensionless); of the first substance listed, at infinite dilution; xn = mol fraction of the nth substance listed
Settings: 101.33 kPa, Liquid, Chromatography, x1 = 0

Row | Compound | activity coefficient (318.15 K) | activity coefficient (328.15 K) | activity coefficient (338.15 K) | activity coefficient (348.15 K) | activity coefficient (358.15 K) | activity coefficient (368.15 K) | activity coefficient (378.15 K)
1 | CC#N [acetonitrile] + CCCCCCCCCCCC[N+](C)(C)CCOc1ccccc1.O=S(=O)([N-]S(=O)(=O)C(F)(F)F)C(F)(F)F | 0.473 ± 0.037 | 0.489 ± 0.037 | 0.506 ± 0.038 | 0.523 ± 0.039 | 0.539 ± 0.039 | 0.555 ± 0.04 | –
2 | c1ccccc1 [benzene] + CCCCCCCCCCCC[N+](C)(C)CCOc1ccccc1.N#C[N-]C#N | – | 0.835 ± 0.054 | 0.87 ± 0.056 | 0.905 ± 0.057 | 0.938 ± 0.059 | 0.972 ± 0.061 | 1.01 ± 0.06
3 | c1ccccc1 [benzene] + CCCCCCCCCCCC[N+](C)(C)CCOc1ccccc1.O=S(=O)([N-]S(=O)(=O)C(F)(F)F)C(F)(F)F | 0.569 ± 0.041 | 0.6 ± 0.042 | 0.629 ± 0.043 | 0.658 ± 0.045 | 0.687 ± 0.046 | 0.716 ± 0.048 | –
4 | CCCCO [butan-1-ol] + CCCCCCCCCCCC[N+](C)(C)CCOc1ccccc1.N#C[N-]C#N | – | 0.463 ± 0.036 | 0.473 ± 0.037 | 0.483 ± 0.037 | 0.494 ± 0.038 | 0.504 ± 0.038 | 0.514 ± 0.038
5 | CCCCO [butan-1-ol] + CCCCCCCCCCCC[N+](C)(C)CCOc1ccccc1.O=S(=O)([N-]S(=O)(=O)C(F)(F)F)C(F)(F)F | 1.38 ± 0.09 | 1.32 ± 0.09 | 1.28 ± 0.08 | 1.23 ± 0.08 | 1.19 ± 0.08 | 1.15 ± 0.07 | –
6 | CCC(C)O (stereo unspecified) [butan-2-ol] + CCCCCCCCCCCC[N+](C)(C)CCOc1ccccc1.N#C[N-]C#N | – | 0.495 ± 0.038 | 0.508 ± 0.038 | 0.522 ± 0.039 | 0.536 ± 0.039 | 0.55 ± 0.04 | 0.564 ± 0.041
7 | CCC(C)O (stereo unspecified) [butan-2-ol] + CCCCCCCCCCCC[N+](C)(C)CCOc1ccccc1.O=S(=O)([N-]S(=O)(=O)C(F)(F)F)C(F)(F)F | 1.23 ± 0.08 | 1.2 ± 0.08 | 1.17 ± 0.07 | 1.15 ± 0.07 | 1.12 ± 0.07 | 1.1 ± 0.07 | –
8 | CCCC=O [butanal] + CCCCCCCCCCCC[N+](C)(C)CCOc1ccccc1.N#C[N-]C#N | – | 0.766 ± 0.05 | 0.779 ± 0.051 | 0.79 ± 0.051 | 0.803 ± 0.052 | 0.816 ± 0.053 | 0.828 ± 0.053
9 | CCCC=O [butanal] + CCCCCCCCCCCC[N+](C)(C)CCOc1ccccc1.O=S(=O)([N-]S(=O)(=O)C(F)(F)F)C(F)(F)F | 0.711 ± 0.047 | 0.742 ± 0.049 | 0.777 ± 0.051 | 0.81 ± 0.052 | 0.844 ± 0.054 | 0.876 ± 0.056 | –
10 | C1CCCCCC1 [cycloheptane] + CCCCCCCCCCCC[N+](C)(C)CCOc1ccccc1.N#C[N-]C#N | – | 3.26 ± 0.22 | 3.29 ± 0.22 | 3.31 ± 0.23 | 3.34 ± 0.23 | 3.37 ± 0.23 | 3.39 ± 0.23
11 | C1CCCCCC1 [cycloheptane] + CCCCCCCCCCCC[N+](C)(C)CCOc1ccccc1.O=S(=O)([N-]S(=O)(=O)C(F)(F)F)C(F)(F)F | 2.26 ± 0.15 | 2.3 ± 0.16 | 2.34 ± 0.16 | 2.37 ± 0.16 | 2.4 ± 0.16 | 2.43 ± 0.17 | –
12 | C1CCCCC1 [cyclohexane] + CCCCCCCCCCCC[N+](C)(C)CCOc1ccccc1.N#C[N-]C#N | – | 3.15 ± 0.21 | 3.16 ± 0.22 | 3.18 ± 0.22 | 3.2 ± 0.22 | 3.22 ± 0.22 | 3.24 ± 0.22
13 | C1CCCCC1 [cyclohexane] + CCCCCCCCCCCC[N+](C)(C)CCOc1ccccc1.O=S(=O)([N-]S(=O)(=O)C(F)(F)F)C(F)(F)F | 2.02 ± 0.14 | 2.05 ± 0.14 | 2.08 ± 0.14 | 2.11 ± 0.14 | 2.13 ± 0.14 | 2.16 ± 0.15 | –
14 | C1=CCCCC1 [cyclohexene] + CCCCCCCCCCCC[N+](C)(C)CCOc1ccccc1.N#C[N-]C#N | – | 2.16 ± 0.15 | 2.19 ± 0.15 | 2.22 ± 0.15 | 2.26 ± 0.15 | 2.29 ± 0.16 | 2.31 ± 0.16
15 | C1=CCCCC1 [cyclohexene] + CCCCCCCCCCCC[N+](C)(C)CCOc1ccccc1.O=S(=O)([N-]S(=O)(=O)C(F)(F)F)C(F)(F)F | 1.47 ± 0.1 | 1.52 ± 0.1 | 1.56 ± 0.1 | 1.61 ± 0.11 | 1.65 ± 0.11 | 1.69 ± 0.11 | –
16 | C1CCCCCCC1 [cyclooctane] + CCCCCCCCCCCC[N+](C)(C)CCOc1ccccc1.N#C[N-]C#N | – | 3.56 ± 0.24 | 3.63 ± 0.25 | 3.69 ± 0.25 | 3.72 ± 0.25 | 3.76 ± 0.26 | 3.79 ± 0.26
